Measurements taken from PubChem BioAssay (NCI).
“And” between values parts separate entries of the source, which are not always exact repeats. Identical values can stand only once.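 96-well plates; 48 h exposure; 5 concentrations. Endpoints by linear interpolation between flanking doses. Not reached: highest tested concentration assigned. GI50 = concentration required for 50% inhibition of growth. At the TGI there is no net growth.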

How the values were obtained:
Experiment in all cases: growth of human tumour cells (NCI), 48 h
786-0 renal = system: 786-0 renal
HS 578T breast = system: HS 578T breast
NCI-H23 lung = system: NCI-H23 lung
NCI-H460 lung = system: NCI-H460 lung
OVCAR-3 ovarian = system: OVCAR-3 ovarian
RPMI-8226 leukemia = system: RPMI-8226 leukemia
SNB-19 CNS = system: SNB-19 CNS
SR leukemia = system: SR leukemia
SF-295 CNS = system: SF-295 CNS
T-47D breast = system: T-47D breast

Structure (SMILES)	GI50 (786-0 renal) [µM]	TGI (786-0 renal) [µM]	GI50 (HS 578T breast) [µM]	TGI (HS 578T breast) [µM]	GI50 (NCI-H23 lung) [µM]	TGI (NCI-H23 lung) [µM]	GI50 (NCI-H460 lung)	TGI (NCI-H460 lung) [µM]	GI50 (OVCAR-3 ovarian) [µM]	TGI (OVCAR-3 ovarian) [µM]	GI50 (RPMI-8226 leukemia)	TGI (RPMI-8226 leukemia) [µM]	GI50 (SNB-19 CNS) [µM]	TGI (SNB-19 CNS) [µM]	GI50 (SR leukemia) [µM]	TGI (SR leukemia) [µM]	TGI (SF-295 CNS) [µM]	GI50 (SF-295 CNS) [µM]	GI50 (T-47D breast) [µM]	TGI (T-47D breast) [µM]
OCc1ccc(N2CCc3ccccc3C2)cc1Cl	16.6	51.7	32.6	> 89.8	13.9	44	< 0.0179 µM	0.174	< 0.0161	0.0389	0.617 µM	87.9	31	> 100	21.9	> 76.4				
CCNC(=O)O/N=C1\CCC2[C@@H]3CC=C4C[C@@H](OC5CCCCO5)CC[C@]4(C)C3CC[C@]12C (stereo not given in full)		6.48				11.1		6.21		10.7		4.8		9.94			7.11			
CC(=O)[CH-]C(=O)c1ccccc1.CC(=O)[CH-]C(=O)c1ccccc1.C[C@]12CCC(=O)C=C1CC[C@@H]1C2CC[C@@]2(C)C1CC[C@@H]2[O-].C[C@]12CCC(=O)C=C1CC[C@@H]1C2CC[C@@]2(C)C1CC[C@@H]2[O-].Cl.[Ti+4] (stereo not given in full)	13.5	26.3			16.2	32.1	14.8 µM	30.9	13.2	65.5	18.8 µM	> 100								
Cc1ccc(S(=O)OCC23CC4CC(CC(C4)C2)C3)cc1 (stereo not given)		> 100				> 100		> 100		> 100		> 100		> 100		> 100	> 100			
COc1ccc2nc3cc(Cl)ccc3c(Sc3ccc([N+](=O)[O-])cc3)c2c1	> 100	> 100			> 100	> 100	> 100 µM	> 100	> 100	> 100		> 100	> 100	> 100		> 10	> 100	> 100		
CC(=O)NC1C(OCc2ccccc2)OC(COC(=O)CCCCCCCCCCNc2ccc([N+](=O)[O-])c3[nH]c4ccccc4c(=O)c23)C(O)C1OC(C)C(=O)NC(C)C(=O)NC(CCC(N)=O)C(=O)OCc1ccccc1 (stereo not given)		> 100				> 100		> 100		> 100		> 100		> 100		> 100	> 100			
O=C(COC(=O)c1cccc2c(=O)c3ccccc3[nH]c12)Nc1ccc(C(=O)O)cc1		> 100				> 100		> 100		> 100				> 100		> 100	> 100			
COC1=CC(c2ccc[nH]2)=N/C1=C\c1[nH]c(C)c(C(=O)CCCCC(=O)Oc2ccc3c(c2)CCC2C3CC[C@]3(C)[C@@H](O)CC[C@@H]23)c1C (stereo not given in full)	5.64	> 100			39.9	> 100	5.71 µM	> 100	> 100	> 100	4.11 µM	> 100	53.1	> 100	3.21	> 100	> 100	> 100	1.39	4.25
CCCCCCCCCCCCOC1C(CNC(=O)C2OC3OC(C)(C)OC3C2NC(=O)Nc2ccc(CC(=O)NC(Cc3ccccc3)C(=O)O)cc2)OC2OC(C)(C)OC21 (stereo not given)	> 25	> 25	9.2	> 25	> 25	> 25	> 25 µM	> 25	> 25	> 25	15.9 µM	> 25	> 25	> 25			> 25	> 25	16.3	> 25
COc1cc([N+](=O)[O-])c(OC)cc1-c1nc2sc(Cl)cn2c1/C=N/NC1=NCCN1	0.487	1.13	2.22	4.94	0.937	2.42	0.322 µM	> 100	0.882	2.62					0.228	0.45	52.8	2.74		
Clc1cc(Cl)cc(N2N=C(c3cccc(Nc4ccncc4)c3)CC2c2ccc3c(c2)OCO3)c1 (stereo not given)	1.69	3.14			1.79	3.45	1.76 µM	3.34	1.73	3.27							3.2	1.77		
OCc1c[te]c(-c2ccccc2)c1		> 100				62.8		> 100		30.2		86.8								
NN1C(=O)C(CCO)S/C1=N/N=C1/SC(CCO)C(=O)N1N (stereo not given)		> 100				> 100		> 100		> 100		> 100		> 100		> 100	> 100			
COC(=O)C(Cc1nc2ccccc2nc1C)/C(=N\NC(N)=O)C(=O)Nc1cccc([N+](=O)[O-])c1 (stereo not given)		> 100				> 100		> 100		> 100		> 100		> 100		> 100	> 100			
Cc1ccccc1-n1c2nc(=O)n(C)c(=O)c-2nc2ccccc21		58				24.6		27.3		6.94		44.9		28.8			27.5			
NCCNCc1c2ccccc2c(CNCCN)c2ccccc12		53.4				35.2		27		70.8						> 100	82.8			
CC1=CC(N2C(=O)C(C)=CC2O)NC1=O (stereo not given)		> 100				> 100		> 100		> 100				> 100		> 100	> 100			
COc1cc2c(cc1OC)C1Cc3cc(OC)c(OC)cc3C(C2)N1C		> 100		> 75		> 100	30.3 µM and 78.9 µM	> 100		> 100	17.1 µM and > 100 µM	> 100		> 100			> 100			> 75
CC(C)NC(=O)CCN(C(=O)O)S(=O)(=O)c1ccc(NC(=O)c2ccccc2)cc1		> 100				> 100		> 59.7		> 100		> 71.5		> 100		> 83	> 100			
